“And” between values parts separate entries of the source, which are not always exact repeats. Equal entries are not always repeated. Where two headings read alike, the source gives them in different places.
Assays:
[1] = target: T1, CB2 receptor (Homo sapiens, UniProt P34972); parameters: expressed in transfected cells; conditions: cited from earlier work
[2] = target: T2, CB1 receptor (Rattus norvegicus, UniProt P20272); conditions: cited from earlier work
T2 construct: from tissue; host or cells: rat whole brain, P2 membranes
T2 sequence (P20272 whole entry): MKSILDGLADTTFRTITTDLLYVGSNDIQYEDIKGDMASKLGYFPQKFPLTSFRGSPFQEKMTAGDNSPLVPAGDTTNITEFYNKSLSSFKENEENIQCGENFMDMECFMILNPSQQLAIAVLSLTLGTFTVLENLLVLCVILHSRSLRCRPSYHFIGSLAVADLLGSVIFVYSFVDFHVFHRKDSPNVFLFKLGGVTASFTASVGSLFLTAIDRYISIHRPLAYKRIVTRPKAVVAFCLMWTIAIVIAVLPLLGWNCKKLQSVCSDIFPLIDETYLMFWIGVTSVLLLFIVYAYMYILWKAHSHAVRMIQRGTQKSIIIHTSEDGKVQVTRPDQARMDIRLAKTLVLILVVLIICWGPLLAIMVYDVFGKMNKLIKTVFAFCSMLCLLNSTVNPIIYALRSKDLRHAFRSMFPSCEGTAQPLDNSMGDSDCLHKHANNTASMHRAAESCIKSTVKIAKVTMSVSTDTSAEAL

[3] = target: T1, CB2 receptor; experiment: CB2 assay: displacement of [3H]CP-55,940 from cloned human CB2 receptor preparation (transfected HEK 293 cells); type: binding; parameters: expressed in transfected cells; conditions: for Ratio CB1/CB2: Table 1; for Ki: cloned human CB2
[4] = target: T1, CB2 receptor
[5] = target: T3, CB1 receptor (Homo sapiens, UniProt P21554); conditions: Gareau et al.; cited from earlier work
T3 sequence (P21554 whole entry): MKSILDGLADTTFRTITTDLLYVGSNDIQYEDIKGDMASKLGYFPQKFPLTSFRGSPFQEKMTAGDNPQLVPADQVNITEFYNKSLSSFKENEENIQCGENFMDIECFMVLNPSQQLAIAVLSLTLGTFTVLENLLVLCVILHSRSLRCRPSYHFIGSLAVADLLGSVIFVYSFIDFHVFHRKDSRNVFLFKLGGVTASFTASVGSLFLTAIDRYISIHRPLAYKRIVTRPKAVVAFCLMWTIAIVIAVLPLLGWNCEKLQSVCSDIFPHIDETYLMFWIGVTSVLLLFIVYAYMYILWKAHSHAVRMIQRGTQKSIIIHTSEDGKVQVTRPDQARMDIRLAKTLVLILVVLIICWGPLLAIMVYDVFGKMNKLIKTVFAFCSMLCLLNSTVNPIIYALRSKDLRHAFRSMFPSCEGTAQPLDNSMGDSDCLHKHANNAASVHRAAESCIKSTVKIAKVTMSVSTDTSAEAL

[6] = test system: mouse vas deferens; conditions: cited from earlier work
[7] = test system: glioma tumors; conditions: cited from earlier work
[8] = test system: mouse model of multiple sclerosis; conditions: cited from earlier work
[9] = target: T1, CB2 receptor; experiment: [35S]GTPγS binding in human CB2 receptor-expressing CHO cell membranes; type: biochemical; parameters: expressed in transfected cells
[10] = target: T3, CB1 receptor; conditions: read-out: Ki CB1 receptor; Hanus et al.; cited from earlier work
[11] = blocked by CB2 antagonist SR-144528; cited from earlier work
[12] = blocked by CB2 antagonist SR-144528; cited from earlier work; remark: listed apart in the source
[13] = test system: mouse behavioral tetrad; conditions: cited from earlier work
[14] = target: T2, CB1 receptor; experiment: CB1 assay: displacement of [3H]CP-55,940 from rat brain membrane preparation; type: binding
[15] = previously reported by the applicants (literature refs), read-out: Ki at CB2 receptor
[16] = Table 1, mean ± SEM, values marked ref 8, 19 or 20, read-out: Ki CB1
[17] = previously reported by the applicants (literature refs), read-out: Ki at CB1 receptor

T1 sequence (P34972 whole entry): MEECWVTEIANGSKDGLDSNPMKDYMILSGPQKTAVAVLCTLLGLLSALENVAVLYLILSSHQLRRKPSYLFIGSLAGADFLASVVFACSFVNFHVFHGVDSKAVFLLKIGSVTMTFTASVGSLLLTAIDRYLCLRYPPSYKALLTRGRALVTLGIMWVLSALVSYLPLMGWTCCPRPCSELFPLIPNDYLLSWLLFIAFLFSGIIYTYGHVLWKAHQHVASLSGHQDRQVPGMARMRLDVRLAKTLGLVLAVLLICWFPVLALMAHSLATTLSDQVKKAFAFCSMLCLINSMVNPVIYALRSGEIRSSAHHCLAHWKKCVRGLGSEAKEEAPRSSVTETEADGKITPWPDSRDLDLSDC

For CCCCCCC(C)(C)c1ccc2c(c1)OC(C)(C)C1CC=C(CO)CC21 (stereo not shown) [Compound 1, 1-Deoxy-11-hydroxy-3-(1′,1′-dimethylheptyl)-Δ^8-THC], the Ki ([1]; Table 1, mean ± SEM, values marked ref 30, 19 or 20, read-out: Ki CB2) is given as 0.03 ± 0.02 nM, the Ki [1, 15] is given as 0.032 nM and the Ki [2, 16] is given as 1.2 ± 0.1 nM. The Ki [2, 17] was 1.2 nM and the “Ratio CB1/CB2” value ([3]; ratio of Ki values) was 40.
In the case of C=C1CCC2C(C1)c1c(OC)cc(C(C)(C)CCCCCC)cc1OC2(C)C (stereo not shown) [Compound 5, 1-methoxy-66 ^9(11)-THC-DMH], the Ki ([4]; Gareau et al.; read-out: Ki at CB2; cited from earlier work) is listed as roughly 20 nM and the “Ki at CB1” value [5] is listed as “virtually no affinity”.
In the case of COc1ccc(C(=O)c2c(C)n(CCN3CCOCC3)c3ccccc23)cc1 [pravadoline], the “contractions of electrically stimulated mouse vas deferens” value [6] is given as “inhibited contractions”.
In the case of CCCC(C)(C)c1ccc2c(c1)OC(C)(C)C1CC=C(C)CC21 (stereo not shown) [Compound 3, 3-(1′,1′-Dimethylbutyl)-1-deoxy-Δ^8-THC, reference compound], the Ki ([1]; previously reported by the applicants (literature refs), listed as JWH-133, read-out: Ki at CB2 receptor) is given as 3.4 ± 1 nM, the “in vivo growth of glioma tumors” value [7] is given as “inhibits the in vivo growth of glioma tumors” and the reduction of spasticity [8] is given as “effective in reducing spasticity”. For the same compound, the Ki [2, 17] was 677 ± 132 nM, the “Emax relative to CP-55,940” value [9] was 111.5±13.6% and the “Emax (% CP-55940)” value ([9]; Table 4, mean ± SEM, per cent relative to 3 μM CP-55,940) was 111.5 ± 13.6 % CP-55940. The “efficacy in the [35S]GTPγS assay relative to CP-55,940” value ([9]; in words) was “highly efficacious”, the EC50 ([9]; read-out: EC50 in the [35S]GTPγS assay) was 4 ± 1 nM and the “Ratio CB1/CB2” value ([3]; ratio of Ki values) was 199.
For CCCCCn1c(C)c(C(=O)c2cccc3ccccc23)c2ccccc21 [JWH-007, 1-pentyl-2-methyl-3-(1-naphthoyl)indole], the Ki ([1]; read-out: Ki CB2, Table 2, mean ± SEM, values marked with literature refs) is given as 2 ± 2.6 nM and the “Ratio CB17CB2” value ([3]; Table 2, ratio of Ki values) is given as 3.3.
For CCCCCCC(C)(C)c1cc(OC)c([C@@H]2C=C(CO)[C@@H]3C[C@H]2C3(C)C)c(OC)c1 [HU-308], the Ki [10] is given as greater than 10000 nM, the “effect on blood pressure” value [11] is given as “reduces blood pressure” and the peripheral analgesic activity [12] is given as “shows peripheral analgesic activity”. The “activity in the mouse behavioral tetrad” value [13] was “inactive”.
Compound CCCn1cc(C(=O)c2c(OC)ccc3ccccc23)c2ccccc21 [JWH-265, 1-Propyl-3-(2-methoxy-1-naphthoyl)indole] has a Ki ([14]; Table 3, mean ± SEM, 3-(alkoxy-1-naphthoyl)indoles, the same values as Ki in nM, read-out: CB1 (receptor affinity)) of 3790 ± 323 nM, a Ki ([3]; read-out: Ki at CB2 receptor) of 80 ± 13 nM and a melting point of 117 to 119 °C.
For CCCCCCC(C)(C)c1ccc2c(c1)OC(C)(C)C1CC=C(C)CC21 (stereo not shown) [Compound 2, 1-Deoxy-3-(1′,1′-dimethylheptyl)-Δ^8-THC], the Ki [1, 15] is listed as 2.9 nM, the Ki [2, 16] is listed as 22.8 ± 7.3 nM and the Ki [2, 17] is listed as 23 nM. For the same compound, the “Ratio CB1/CB2” value ([3]; ratio of Ki values) was 7.9.
In the case of CCCCCCC(C)(C)c1cc(OC)c2c(c1)OC(C)(C)[C@@H]1CC=C(C)C[C@@H]21 [Compound 4, 3-(1′,1′-Dimethylheptyl)-1-methoxy-Δ^8-THC, reference compound], the Ki [14] is given as 713 nM, the Ki ([1]; read-out: Ki at CB2 receptor, previously reported by the applicants (literature refs)) is given as 65 ± 8 nM and the Ki ([4]; read-out: Ki at CB2; Gareau et al.; cited from earlier work) is given as roughly 20 nM. For the same compound, the Ki ([2]; read-out: Ki at CB1 receptor, previously reported by the applicants (literature refs)) was 924 ± 104 nM, the Ki ([3]; Ki at CB2 receptor) was 57 nM and the “Ratio CB1/CB2” value ([3]; ratio of Ki values) was 12 and 14. The “Ki at CB1” value [5] was “virtually no affinity”.

Reference: patent US20050009903A1, “CB2-selective cannabinoid analogues” (priority 2003, published 2005)
